Reference: patent US4292319A, “Antiphlogistic pharmaceutical compositions and method of use” (Boehringer Ingelheim GmbH, priority 1977, dated 1981)
Where a name gives a salt, the structure may show the parent alone. Read-outs that look alike come from different tables or passages of the source.

Assays:
[1] = tested on: kaolin-induced edema of the rat's hind paw; experiment: Test for antiphlogistic effect against the kaolin-induced edema of the rat's hind paw; assay type: in vivo, rat (Chbb:THOM); conditions: oral, rat; for ED35: Rattus norvegicus, po, 5 h, kaolin edema, read-out: ED35; for Thickness of the paw (mean): 5 h after kaolin
Protocol: (2) Test for antiphlogistic effect against the kaolin-induced edema of the rat's hind paw (tested substances: A, B, C and D)
The test was carried out on male Chbb:THOM-rats with a body weight between 125 and 150 gm. According to HILLEBRECHT [Arzneimittel-Forsch. 4, 607 (1954)], a subplantary injection of 0.05 ml of a 10% suspension of kaolin in an aqueous 0.85% sodium chloride solution in the hind paw was used for the provocation of the kaolin edema. The other hind paw was subplantarily injected with the same volume of an aqueous 0.85% sodium chloride solution.
The measurement of the thickness of the paws was carried out using the technique of DOEPFNER and […] [Int. Arch. Allergy appl. Immunol. 12, 89 (1958)] by way of the determination of the maximum sagittal diameter, using a measuring device with constant pressure, before and 5 hours after the provocation of the edema.
The test substances (the non-steroidal antiphlogistics or the mixture of non-steroidal antiphlogistics with pirenzepine dihydrochloride) were administered 30 minutes before provocation of the edema as a trituration in 1% tylose (1 ml/[…]) by way of an esophageal tube.
The diameter of the paw measured before the beginning of the test as well as the increase in diameter of the other paw caused by injection were subtracted from the diameter of the kaolin-treated paw, and this difference, being the real swelling value, was used for the further calculations.
(§1) From the swelling values obtained by administration of different dosages of non-steroidal antiphlogistics with or without the addition of pirenzepine dihydrochloride, using a linear regression analysis according to LINDNER [Statistische Methoden, 4th Ed., pages 148-162, Birkhauser, Basel, Switzerland (1964)], the ED35 values of the antiphlogistics were calculated with the confidence limits according to FIELLER [Quart. J. Pharm. Pharmacol. 17, 117 (1944)], the ED35 being the dosage which reduces the swelling of the paws by 35% in comparison to the control animals.

stomach of the rat = experiment: Test for ulcerogenic effect on the stomach of the rat; assay type: in vivo, rat (Chbb:THOM); conditions: oral, 3 subsequent days
Protocol: (§2) (1) Test for ulcerogenic effect on the stomach of the rat
(§3) The test was carried out on male and female (1:1) Chbb:THOM-rats with a body weight between 130 to 150 gm at the beginning of the study.
(§4) The test substances (non-steroidal anti-phlogistics or mixtures of these antiphlogistics with pirenzepine dihydrochloride) were administered as triturations in 1% tylose (1 ml/100 gm animal) by way of an esophageal tube once a day on three successive days.
(§5) Four hours after the last administration (i.e. on the 3rd day) the animals were killed by an over-dose of ether. The stomachs wer dissected, cut along the great curvature and washed under flowing water for subsequent macroscopic evaluation.

[2] = as above; assay type: in vivo, rat (Chbb:THOM); conditions: in vivo, po
Protocol: as §2, §3, §4, §5

[3] = tested on: carrageenin-induced edema of the hind paw of the rat; experiment: Test for antiphlogistic effect against the carrageenin-induced edema of the hind paw of the rat; assay type: in vivo; conditions: rat; for ED35: Rattus norvegicus, po, 3 h, carrageenin edema; for Thickness of the paw (mean): 3 h after carrageenin
Protocol: The test was carried out in analogy to the above test for the kaolin-induced edema. However, the edema was induced according to the method of WINTER et al. [J. Pharmacol. 141, 369 (1963)] by subplantary injection of 0.05 ml of a 1% solution of carrageenin in an aqueous 0.85% solution of sodium chloride. […] Three hours after the provocation of the edema the measurement which provided the basis for the evaluation of an anti-exudative effect was carried out.
as §1

[4] = antiphlogistic 12.5 mgm/kg, without A
[5] = antiphlogistic 25 mgm/kg + A 100 mgm/kg
[6] = antiphlogistic 25 mgm/kg, without A
[7] = antiphlogistic 50 mgm/kg + A 100 mgm/kg
[8] = antiphlogistic 50 mgm/kg, without A
[9] = antiphlogistic 100 mgm/kg, without A

O=C(O)C=CC(O)c1ccc(-c2ccccc2F)cc1 (centres unmarked) [C, 4-[4-(2'-fluoro-biphenylyl)]-4-hydroxy-crotonic acid morpholine salt]
ED35 ([1]; with A 100 mgm/kg): 17.6 mg/kg | ED35 ([1]; without A): 15.3 mg/kg | Thickness of the paw (mean) ([1]; antiphlogistic 6.25 mgm/kg + A 100 mgm/kg): 215.6 10^-2 mm | Thickness of the paw (mean) ([1]; antiphlogistic 6.25 mgm/kg, without A): 203.9 10^-2 mm | Thickness of the paw (mean) ([1]; antiphlogistic 12.25 mgm/kg + A 100 mgm/kg): 187.0 10^-2 mm | Thickness of the paw (mean) [1, 4]: 179.5 10^-2 mm | Thickness of the paw (mean) [1, 5]: 166.0 10^-2 mm | Thickness of the paw (mean) [1, 6]: 164.3 10^-2 mm | Thickness of the paw (mean) [1, 7]: 149.3 10^-2 mm | Thickness of the paw (mean) [1, 8]: 138.0 10^-2 mm | Thickness of the paw (mean) [1, 9]: 93.8 10^-2 mm | Ratio of animals with ulcers (stomach of the rat; antiphlogistic 52 mgm/kg, without A): 5/12 | Ratio of animals with ulcers (stomach of the rat; antiphlogistic 62 mgm/kg + A 50 mgm/kg): 4/15 | Ratio of animals with ulcers (stomach of the rat; antiphlogistic 62 mgm/kg, without A): 8/12 | Ratio of animals with ulcers (stomach of the rat; antiphlogistic 74 mgm/kg + A 50 mgm/kg): 8/17 | Ratio of animals with ulcers (stomach of the rat; antiphlogistic 74 mgm/kg + A 100 mgm/kg): 0/15 | Ratio of animals with ulcers (stomach of the rat; antiphlogistic 74 mgm/kg, without A): 10/12 | Ratio of animals with ulcers (stomach of the rat; antiphlogistic 88 mgm/kg + A 50 mgm/kg): 9/17 | Ratio of animals with ulcers (stomach of the rat; antiphlogistic 88 mgm/kg + A 100 mgm/kg): 4/15 | Ratio of animals with ulcers (stomach of the rat; antiphlogistic 106 mgm/kg + A 50 mgm/kg): 11/17 | Ratio of animals with ulcers (stomach of the rat; antiphlogistic 106 mgm/kg + A 100 mgm/kg): 3/15 | Ratio of animals with ulcers (stomach of the rat; antiphlogistic 127 mgm/kg + A 100 mgm/kg): 7/15 | Ratio of animals with ulcers (stomach of the rat; antiphlogistic 153 mgm/kg + A 100 mgm/kg): 8/15

O=C([O-])Cc1ccccc1Nc1c(Cl)cccc1Cl.[Na+] [E, sodium [o-(2,6-dichloro-anilino)-phenyl]acetate]
TD50 ([2]; with A 200 mgm/kg, oral, 3 subsequent days, read-out: ED50-ulcer): 4.05 mg/kg | TD50 ([2]; with A 400 mgm/kg, oral, 3 subsequent days, read-out: ED50-ulcer): 5.63 mg/kg | TD50 ([2]; without A, oral, 3 subsequent days, read-out: ED50-ulcer): 2.95 mg/kg | Ratio of animals with ulcers (stomach of the rat; antiphlogistic 2 mgm/kg + A 200 mgm/kg): 3/20 | Ratio of animals with ulcers (stomach of the rat; antiphlogistic 2 mgm/kg + A 400 mgm/kg): 1/20 | Ratio of animals with ulcers (stomach of the rat; antiphlogistic 2 mgm/kg, without A): 5/20 | Ratio of animals with ulcers (stomach of the rat; antiphlogistic 4 mgm/kg + A 200 mgm/kg): 9/20 | Ratio of animals with ulcers (stomach of the rat; antiphlogistic 4 mgm/kg + A 400 mgm/kg): 7/20 | Ratio of animals with ulcers (stomach of the rat; antiphlogistic 4 mgm/kg, without A): 14/20 | Ratio of animals with ulcers (stomach of the rat; antiphlogistic 8 mgm/kg + A 200 mgm/kg): 17/19 | Ratio of animals with ulcers (stomach of the rat; antiphlogistic 8 mgm/kg + A 400 mgm/kg): 13/20 | Ratio of animals with ulcers (stomach of the rat; antiphlogistic 8 mgm/kg, without A): 19/20 | Ratio of animals with ulcers (stomach of the rat; antiphlogistic 16 mgm/kg + A 200 mgm/kg): 20/20 | Ratio of animals with ulcers (stomach of the rat; antiphlogistic 16 mgm/kg + A 400 mgm/kg): 19/20 | ED35 ([3]; with A 400 mgm/kg): 4.3 mg/kg | ED35 ([3]; without A): 5 mg/kg | Thickness of the paw (mean) ([3]; antiphlogistic 1.5 mgm/kg + A 400 mgm/kg, oral): 209.5 10^-2 mm | Thickness of the paw (mean) ([3]; antiphlogistic 1.5 mgm/kg, without A, oral): 209.5 10^-2 mm | Thickness of the paw (mean) ([3]; antiphlogistic 3.0 mgm/kg + A 400 mgm/kg, oral): 181.5 10^-2 mm | Thickness of the paw (mean) ([3]; antiphlogistic 3 mgm/kg, without A, oral): 188.5 10^-2 mm | Thickness of the paw (mean) ([3]; antiphlogistic 6.0 mgm/kg + A 400 mgm/kg, oral): 162.5 10^-2 mm | Thickness of the paw (mean) ([3]; antiphlogistic 6 mgm/kg, without A, oral): 170.0 10^-2 mm | Thickness of the paw (mean) ([3]; antiphlogistic 12.0 mgm/kg + A 400 mgm/kg, oral): 148.5 10^-2 mm | Thickness of the paw (mean) ([3]; antiphlogistic 12 mgm/kg, without A, oral): 154.0 10^-2 mm

CC(C)Cc1ccc(C(C)C(=O)O)cc1 (centres unmarked) [H, 2-(4-isobutylphenyl)-propionic acid]
TD50 ([2]; ED50-ulcer): 31 mg/kg | Ratio of animals with ulcers (stomach of the rat; [4]): 0/20 | Ratio of animals with ulcers (stomach of the rat; [5]): 6/20 | Ratio of animals with ulcers (stomach of the rat; antiphlogistic 25 mgm/kg + A 400 mgm/kg): 1/20 | Ratio of animals with ulcers (stomach of the rat; [6]): 8/20 | Ratio of animals with ulcers (stomach of the rat; [7]): 11/20 | Ratio of animals with ulcers (stomach of the rat; antiphlogistic 50 mgm/kg + A 400 mgm/kg): 11/20 | Ratio of animals with ulcers (stomach of the rat; [8]): 15/20 | Ratio of animals with ulcers (stomach of the rat; antiphlogistic 100 mgm/kg + A 100 mgm/kg): 18/20 | Ratio of animals with ulcers (stomach of the rat; antiphlogistic 100 mgm/kg + A 400 mgm/kg): 16/20 | Ratio of animals with ulcers (stomach of the rat; [9]): 19/20 | Ratio of animals with ulcers (stomach of the rat; antiphlogistic 200 mgm/kg + A 100 mgm/kg): 20/20 | Ratio of animals with ulcers (stomach of the rat; antiphlogistic 200 mgm/kg + A 400 mgm/kg): 19/20 | Ratio of animals with ulcers (stomach of the rat; antiphlogistic 200 mgm/kg, without A): 20/20 | ED35 ([3]; with A 400 mgm/kg): 34.2 mg/kg | ED35 ([3]; without A): 39.6 mg/kg | Thickness of the paw (mean) ([3]; antiphlogistic 20 mgm/kg + A 400 mgm/kg, oral): 204.0 10^-2 mm | Thickness of the paw (mean) ([3]; antiphlogistic 20 mgm/kg, without A, oral): 210.0 10^-2 mm | Thickness of the paw (mean) ([3]; antiphlogistic 40 mgm/kg + A 400 mgm/kg, oral): 170.0 10^-2 mm | Thickness of the paw (mean) ([3]; antiphlogistic 40 mgm/kg, without A, oral): 167.0 10^-2 mm | Thickness of the paw (mean) ([3]; antiphlogistic 80 mgm/kg + A 400 mgm/kg, oral): 131.7 10^-2 mm | Thickness of the paw (mean) ([3]; antiphlogistic 80 mgm/kg, without A, oral): 141.5 10^-2 mm

COc1ccc2cc([C@H](C)C(=O)O)ccc2c1 [F, d-2-(6-methoxy-2-naphthyl)-propionic acid]
ED35 ([3]; with A 400 mgm/kg, oral, read-out: ED35): 3 mg/kg | ED35 ([3]; without A, oral, read-out: ED35): 2.8 mg/kg | Thickness of the paw (mean) ([3]; antiphlogistic 2 mgm/kg + A 400 mgm/kg, oral): 192.2 10^-2 mm | Thickness of the paw (mean) ([3]; antiphlogistic 2 mgm/kg, without A, oral): 188.5 10^-2 mm | Thickness of the paw (mean) ([3]; antiphlogistic 4 mgm/kg + A 400 mgm/kg, oral): 168.5 10^-2 mm | Thickness of the paw (mean) ([3]; antiphlogistic 4 mgm/kg, without A, oral): 157.5 10^-2 mm | Thickness of the paw (mean) ([3]; antiphlogistic 8 mgm/kg + A 400 mgm/kg, oral): 133.3 10^-2 mm | Thickness of the paw (mean) ([3]; antiphlogistic 8 mgm/kg, without A, oral): 118.0 10^-2 mm
